US10228365B2, “Method for measuring carbohydrate metabolism ability, and composition for use in said method” (priority 2012, dated 2019)

Key:
[1] = system: glucose metabolism ability; test: Evaluation of treatment effect after administration of insulin with 1-13C-glucose breath test; format: in vivo, rats (Wistar; conditions: STZ rats, FIG. 13
Procedure: A control group (Wistar rats, male, n=3) and a type 1 diabetes group (STZ rats, male, n=3) were used as experimental animals. In the experiment, these rats were allowed free access to water and feed (containing saccharide, fat, and protein) (MF: Oriental Yeast Co., Ltd.). More specifically, the following experiment was performed under non-fasting conditions.
Rats one week after STZ (streptosocin: SIGMA) were intravenously administered in an amount of 65 mg/mL/kg was used as the type 1 diabetes group (STZ rats).
Insulin (SIGMA) was subcutaneously administered to the type 1 diabetes group in an amount of 30 U/body. […] Expired air was collected in the rats of the groups (control group, type 1 diabetes group, insulin-administered 4 h-diabetes group, and insulin-administered 24 h-diabetes group) before the 1-^13C-glucose administration (0 minutes) and at each point in time (10, 20, 30, 40, 50, 60, 80, 100, and 120 minutes) after the 1-^13C-glucose administration. Δ^13C(‰) was determined with a mass spectrometer for expired air analysis (ABCA: produced by Sercon) from the concentration of ^13CO2 excreted in the expired air.

[2] = system: glucose metabolism ability; test: Evaluation of treatment effect of a therapeutic agent for diabetes with U-13C-glucose breath test; format: in vivo, ZDF rats; conditions: 300 mg/kg oral for three days; for expired air pattern (changes in the Δ13C(‰)) after vs before administration: non-fasting, FIG. 12
Procedure: Three groups of ZDF rats (Group A: healthy group (n=4), Group B: diabetes severe onset group (n=6), and Group C: diabetes moderate onset group (n=6)) were used as experimental animals. In the experiment, these ZDF rats were allowed free access to water and feed (containing saccharide, fat, and protein) (MF: Oriental Yeast Co., Ltd.). More specifically, the following experiment was performed under non-fasting conditions.
Metformin (Wako Pure Chemical Industries, Ltd., which is an active ingredient of biguanide therapeutic agents for diabetes (generic name: Melbin), was orally administered to the rats of these groups in an amount of 300 mg/kg every morning for three days. A U-^13C-glucose solution prepared by the method described in (1) of Experimental Example 1 was intravenously administered 3 hours after the administration of metformin on day 3.
Expired air was collected in the rats of each group before the U-^13-glucose administration (0 minutes) and at each point in time (10, 20, 30, 40, 50, 60, 80, 100, and 120 minutes) after the U-^13C-glucose administration. Δ^13(‰) was determined with a mass spectrometer for expired air analysis (ABCA: produced by Sercon) from the concentration of ^13CO2 excreted in the expired air.

[3] = system: glucose metabolism ability; test: Breath test under fasting and glucose-loaded conditions; format: in vivo, rats (OLETF, LETO)
Procedure: OLETF rats, which are diabetic animal models, were used as experimental animals, and LETO rats were used as a control. More specifically, after being fasted for 20 hours, Group 1 (control group: […], male, n=5) and Group 2 (diabetes group; OLETF rats, male, n=6) were subjected to the following test.
An aqueous U-^13C-glucose solution (50 μmol/4 mL/kg) was orally administered to Group 1 (control group) and Group 2 (diabetes group) under fasting conditions. In each group, expired air was collected before the U-^13C-glucose administration (0 minutes) and at each point in time (10, 20, 30, 40, 50, 60, 80, 100, and 120 minutes) after the U-^13C-glucose administration. Δ^13C(‰) was determined with a mass spectrometer for expired air analysis (ABCA: produced by Sercon) from the concentration of ^13CO2 excreted in the expired air.
• (2-2-1) An aqueous glucose solution (450 mg/4 mL/kg) and an aqueous U-^13C-glucose solution (50 μmol/4 mL/kg) were orally administered simultaneously to the experimental animals of (1), i.e., Group 1 (control group) and Group 2 (diabetes group). As in (2-1), expired air was collected in each group before the U-^13C-glucose administration (0 minutes) and at each, point in time (10, 20, 30, 40, 50, 60, 80, 100, and 120 minutes) after the U-^13C-glucose administration. Δ^13C(‰) was determined from the concentration of ^13CO2 excreted in the expired air. […]

[4] = system: glucose metabolism ability; conditions: rat, in vivo, iv
Procedure: Fasted rats (male, SD rats) as experimental animals were divided into four groups (n=4 per group). The above-prepared ^13C-glucose solutions were individually intravenously administered to the rats in each group (1-^13-Glc-administration group, 2-^13C-Glc-administration group, 3-^13C-Glc-administration group, and U-^13-Glc-adrainistration group) in an amount of 1 mL/kg. Expired air was collected before the administration of each ^13C-glucose solution (0 minutes) and at each point in time (10, 20, 30, 40, 50, 60, 80, 100, and 120 minutes) after the administration of each ^13C-glucose solution, Δ^13C(‰) was determined with a mass spectrometer for expired air analysis (ABCA: produced by Sercon) from the concentration of ^13CO2 excreted in the expired air.
The Δ^13C(‰) was determined by measuring the ^13CO2/^12CO2 concentration ratio (δ^13C value) in the expired air before the administration of each ^13C-glucose solution (0 minutes) and in the expired air at each point in time for collecting the expired air (t minutes) after the administration of each ^13C-glucose solution, and calculating Δ^13C(‰) from the difference between the δ^13C value (δ^13Ct) at each collection point in time (t) and the δ^13C value (δ^13C0) before the administration (δ^13Ct−δ^13C0) (the same applies to the below-described Experimental Examples).

Compound: insulin: Insulin (SIGMA), subcutaneously administered
- Δ13C(‰) compared with control group ([1]; 4 hours after 30 U/body subcutaneous): almost the same as that of the control group
- expired air pattern (change in the Δ13C(‰)) ([1]; 24 hours after 30 U/body subcutaneous): low value

Compound: CN(C)C(=N)N=C(N)N [therapeutic agent for diabetes, Metformin]
- expired air pattern (changes in the Δ13C(‰)) after vs before administration ([2]; Group B diabetes severe onset): higher values
- expired air pattern (changes in the Δ13C(‰)) after vs before administration ([2]; Group C diabetes moderate onset): higher values
- glucose metabolism ability ([2]; diabetes onset groups B and C): enhanced

Compound: OC[C@H]1OC(O)[C@H](O)[C@@H](O)[C@@H]1O (stereo partly drawn) [U-^13C-glucose]
- difference between the Δ13C(‰) value of Group 1 (control group) and Group 2 (diabetes group) ([3]; fasting conditions, oral 50 μmol/4 mL/kg, FIG. 6): small
- difference in the expired air response between Group 1 (control group) and Group 2 (diabetes group) ([3]; rat, in vivo): further widened
- expired air pattern of Group 1 (control group) compared with Group 2 (diabetes group) ([3]; rat, in vivo): significantly high

Compound: OC[C@H]1OC(O)[C@H](O)[13C@@H](O)[C@@H]1O (stereo partly drawn) [3-^13C-glucose]
- Δ13C(‰) in the expired air up to 30 minutes after the glucose solution administration (rank among 13C-glucoses) [4]: highest
